Source: the NIST ThermoML archive (doi:10.1016/j.fluid.2015.03.015)

Test: refractive index (other wavelength) (dimensionless); xn = mol fraction of the nth substance listed

CCCCCCCC[n+]1ccn(C)c1.F[B-](F)(F)F [1-methyl-3-octylimidazolium tetrafluoroborate] + CCCCCCCO
Minimum deviation
Settings	refractive index
298.87 K, Liquid mixture 1, Wavelength=623.8 nm, x1 = 0.01	1.4213
298.87 K, Liquid mixture 2, Wavelength=623.8 nm, x1 = 0.382	1.4264
299.67 K, Liquid mixture 1, Wavelength=623.8 nm, x1 = 0.011	1.421
299.67 K, Liquid mixture 2, Wavelength=623.8 nm, x1 = 0.371	1.426
300.45 K, Liquid mixture 1, Wavelength=623.8 nm, x1 = 0.011	1.4207
300.45 K, Liquid mixture 2, Wavelength=623.8 nm, x1 = 0.359	1.4256
301.2 K, Liquid mixture 1, Wavelength=623.8 nm, x1 = 0.016	1.4205
301.2 K, Liquid mixture 2, Wavelength=623.8 nm, x1 = 0.347	1.4252
301.93 K, Liquid mixture 1, Wavelength=623.8 nm, x1 = 0.015	1.4202
301.93 K, Liquid mixture 2, Wavelength=623.8 nm, x1 = 0.335	1.4248
302.63 K, Liquid mixture 1, Wavelength=623.8 nm, x1 = 0.019	1.42
302.63 K, Liquid mixture 2, Wavelength=623.8 nm, x1 = 0.33	1.4245
303.31 K, Liquid mixture 1, Wavelength=623.8 nm, x1 = 0.023	1.4198
303.31 K, Liquid mixture 2, Wavelength=623.8 nm, x1 = 0.317	1.4241
303.94 K, Liquid mixture 1, Wavelength=623.8 nm, x1 = 0.025	1.4196
303.94 K, Liquid mixture 2, Wavelength=623.8 nm, x1 = 0.302	1.4237
304.5 K, Liquid mixture 1, Wavelength=623.8 nm, x1 = 0.027	1.4194
304.5 K, Liquid mixture 2, Wavelength=623.8 nm, x1 = 0.294	1.4234
305 K, Liquid mixture 1, Wavelength=623.8 nm, x1 = 0.031	1.4193
305 K, Liquid mixture 2, Wavelength=623.8 nm, x1 = 0.284	1.4231
305.41 K, Liquid mixture 1, Wavelength=623.8 nm, x1 = 0.035	1.4192
305.41 K, Liquid mixture 2, Wavelength=623.8 nm, x1 = 0.272	1.4228
305.78 K, Liquid mixture 1, Wavelength=623.8 nm, x1 = 0.037	1.4191
305.78 K, Liquid mixture 2, Wavelength=623.8 nm, x1 = 0.259	1.4225
306.09 K, Liquid mixture 1, Wavelength=623.8 nm, x1 = 0.038	1.419
306.09 K, Liquid mixture 2, Wavelength=623.8 nm, x1 = 0.253	1.4223
306.34 K, Liquid mixture 1, Wavelength=623.8 nm, x1 = 0.043	1.419
306.34 K, Liquid mixture 2, Wavelength=623.8 nm, x1 = 0.244	1.4221
306.54 K, Liquid mixture 1, Wavelength=623.8 nm, x1 = 0.048	1.419
306.54 K, Liquid mixture 2, Wavelength=623.8 nm, x1 = 0.242	1.422
306.7 K, Liquid mixture 1, Wavelength=623.8 nm, x1 = 0.051	1.419
306.7 K, Liquid mixture 2, Wavelength=623.8 nm, x1 = 0.232	1.4218
306.83 K, Liquid mixture 1, Wavelength=623.8 nm, x1 = 0.06	1.4191
306.83 K, Liquid mixture 2, Wavelength=623.8 nm, x1 = 0.228	1.4217
306.93 K, Liquid mixture 1, Wavelength=623.8 nm, x1 = 0.062	1.4191
306.93 K, Liquid mixture 2, Wavelength=623.8 nm, x1 = 0.224	1.4216
307.02 K, Liquid mixture 1, Wavelength=623.8 nm, x1 = 0.064	1.4191
307.02 K, Liquid mixture 2, Wavelength=623.8 nm, x1 = 0.219	1.4215
307.1 K, Liquid mixture 1, Wavelength=623.8 nm, x1 = 0.071	1.4192
307.1 K, Liquid mixture 2, Wavelength=623.8 nm, x1 = 0.221	1.4215
307.16 K, Liquid mixture 1, Wavelength=623.8 nm, x1 = 0.073	1.4192
307.16 K, Liquid mixture 2, Wavelength=623.8 nm, x1 = 0.215	1.4214
307.21 K, Liquid mixture 1, Wavelength=623.8 nm, x1 = 0.08	1.4193
307.21 K, Liquid mixture 2, Wavelength=623.8 nm, x1 = 0.217	1.4214
307.26 K, Liquid mixture 1, Wavelength=623.8 nm, x1 = 0.081	1.4193
307.26 K, Liquid mixture 2, Wavelength=623.8 nm, x1 = 0.211	1.4213
307.3 K, Liquid mixture 1, Wavelength=623.8 nm, x1 = 0.081	1.4193
307.3 K, Liquid mixture 2, Wavelength=623.8 nm, x1 = 0.204	1.4212
307.33 K, Liquid mixture 1, Wavelength=623.8 nm, x1 = 0.082	1.4193
307.33 K, Liquid mixture 2, Wavelength=623.8 nm, x1 = 0.198	1.4211
307.36 K, Liquid mixture 1, Wavelength=623.8 nm, x1 = 0.089	1.4194

85 kPa, Liquid, Wavelength=632.8 nm, Minimum Deviation
Settings	refractive index
301.61 K, x1 = 0.7	1.4285
302.37 K, x1 = 0.8	1.429
302.37 K, x1 = 0.898	1.4299
303.54 K, x1 = 0.7	1.4279
303.94 K, x1 = 0.898	1.4295
303.98 K, x1 = 0.8	1.4286
305.36 K, x1 = 0.7	1.4274
305.43 K, x1 = 0.898	1.4291
305.58 K, x1 = 0.5	1.4254
305.64 K, x1 = 0.8	1.4282
306.75 K, x1 = 0.6	1.4262
307.04 K, x1 = 0.7	1.4269
307.1 K, x1 = 0.8	1.4278
307.12 K, x1 = 0.898	1.4286
307.21 K, x1 = 0.5	1.4249
